Assay results from patent US20250345426A1, “METHODS FOR MAKING AND USING THERAPEUTIC CELLS” (THE REGENTS OF THE UNIVERSITY OF CALIFORNIA, priority 2022, published 2025).

How the values were obtained:
[1] = test system: rituximab CAR-T cells; test: T-cell subtype distribution (CD45RO/CD62L staining), rituximab CAR-T cells; format: cell-based, human; details: 5 days of pharmacological modulation, vs vehicle
Text: FIG. 1A-G. Pharmacological inhibition of PI3K/AKT pathway modulates antigen-independent CAR-T cell activation. (A) Table of pharmacological inhibitors used during ex vivo expansion of rituximab CAR-T cells (left). Simplified schematic of the PI3K/AKT signaling axis where black arrows represent activation (right). (B) Activation marker expression by CAR^+ T cells in the absence of antigen stimulation after 5 days of pharmacological modulation. Data bars indicate the means of technical triplicates±1 S.D. The bars in FIG. 1B represent data from, untreated, vehicle, CAL-101, AZD5363, Rapamycin, MYCi975, and Betulin, respectively, from left to right. (C) TNF-α production CAR^+ T cells in the absence of antigen stimulation as quantified by intracellular flow cytometry. Data bars indicate the means of technical triplicates±1 S.D. The bars in FIG. 1B and FIG. 1C represent data from, untreated, vehicle, CAL-101, AZD5363, Rapamycin, MYCi975, and Betulin, respectively, from left to right. (D) Proliferation of CAR^+ T cells stained with CellTrace Violet (CTV) dye was assayed after a 4-day culture in the absence of target cells or exogenous cytokines. […] Statistical significance in panels B, C, and D was determined by two-tailed Student's t test with Sidak correction for multiple comparisons. * p<0.05, ** p<0.01, *** p<0.001, n.s. not statistically significant. […]
Antibody staining for flow-cytometry analysis. EGFRt expression was measured with biotinylated cetuximab (Eli Lilly; biotinylated in-house), followed by PE-conjugated streptavidin (Jackson ImmunoResearch #016-110-084). CAR expression was quantified by surface epitope staining using anti-Fc (Alexa Fluor 488, Jackson ImmunoResearch #709-546-098). Antigen-independent activation-marker expression of CAR-T cells was evaluated by antibody staining for CD137 (PE/Cy7, clone 4B4-1, BioLegend #309818), and PD-1 (FITC, clone EH12.2H7, BioLegend #329904) on Days 18 (i.e., 18 days after Dynabead addition and 11 days after Dynabead removal) and after 5-6 days of inhibitor culture (FIG. 1, FIG. 3). […]

[2] = test system: Raji target cells; test: 24-hr lysis assay of inhibitor-treated rituximab CD20 CAR-T cells against Raji; format: cell-based; details: three E:T ratios, vs vehicle-treated
Text: FIG. 1A-G. Pharmacological inhibition of PI3K/AKT pathway modulates antigen-independent CAR-T cell activation. (A) Table of pharmacological inhibitors used during ex vivo expansion of rituximab CAR-T cells (left). Simplified schematic of the PI3K/AKT signaling axis where black arrows represent activation (right). (B) Activation marker expression by CAR^+ T cells in the absence of antigen stimulation after 5 days of pharmacological modulation. Data bars indicate the means of technical triplicates±1 S.D. The bars in FIG. 1B represent data from, untreated, vehicle, CAL-101, AZD5363, Rapamycin, MYCi975, and Betulin, respectively, from left to right. (C) TNF-α production CAR^+ T cells in the absence of antigen stimulation as quantified by intracellular flow cytometry. Data bars indicate the means of technical triplicates±1 S.D. The bars in FIG. 1B and FIG. 1C represent data from, untreated, vehicle, CAL-101, AZD5363, Rapamycin, MYCi975, and Betulin, respectively, from left to right. (D) Proliferation of CAR^+ T cells stained with CellTrace Violet (CTV) dye was assayed after a 4-day culture in the absence of target cells or exogenous cytokines. Data shown in the histogram correspond to one of technical triplicates shown in the bar graph. The bars FIG. 1D represent data from, EGFRt, untreated, vehicle, CAL-101, AZD5363, Rapamycin, MYCi975, and Betulin, respectively, from left to right. (E) % distribution of T-cell subtypes in CAR^+ T cells after 5 days of pharmacological modulation. Data bars indicate the means of technical triplicates±1 S.D. (F) Rituximab CAR-T cell fold expansion after 6 days of inhibitor culture was tracked. […] Statistical significance in panels B, C, and D was determined by two-tailed Student's t test with Sidak correction for multiple comparisons. * p<0.05, ** p<0.01, *** p<0.001, n.s. not statistically significant.
Cytotoxicity assay with Raji cells. […] Remaining target cells were quantified by MACSQuant VYB flow cytometer 24-hr post co-incubation.

[3] = test system: Raji target cells; test: 24-hr lysis assay of inhibitor-treated Leu16 CAR-T cells against Raji; format: cell-based; details: three E:T ratios, vs vehicle-treated
Text: FIG. 4A-C. Characterization of pharmacologically treated Leu16 CAR-T cells in vitro. (A) TNF-α production CAR+ T cells in the absence of antigen stimulation as quantified by intracellular flow cytometry. Data bars indicate the means of technical triplicates ±1 S.D. ns not statistically significant. (B) Leu16 CAR-T cell fold expansion after 6 days of inhibitor culture was tracked. The bars in FIGS. 4A and 4B, represent data from, EGFRt, Leu16-28z (vehicle), Leu16-28z (MYCi975), Leu16-28z (Betulin), and Leu16-28z (Rapamycin), respectively, from left to right. (C) A 24-hr lysis assay of CAR-T cells against Raji target cells at three effector-to-target (E:T) ratios. Data bars indicate the means of technical triplicates±1 S.D. Percent lysis was normalized to cell counts in target-only wells.
Cytotoxicity assay with Raji cells. Raji cells were seeded at 2×10^5 cells/well in 96-well U-bottom plate and coincubated with CAR^+ T cells at 1:1, 3.33:1, and 10:1 E:T ratios. Untransduced T cells were added to wells as needed to normalize for differing transduction efficiencies and ensure the total number of T cells per well was consistent throughout. Remaining target cells were quantified by MACSQuant VYB flow cytometer 24-hr post co-incubation.

C=C(C)[C@@H]1CC[C@]2(CO)CC[C@]3(C)[C@H](CC[C@@H]4[C@@]5(C)CC[C@H](O)C(C)(C)[C@@H]5CC[C@]43C)[C@@H]12 [betulin, Betulin]
fraction of naïve and stem-cell memory T (Tn/scm) cells / T-cell differentiation [1]: accelerated T-cell differentiation | lysis of Raji tumor cells [2]: clustered together | lysis of Raji tumor cells [3]: clustered together

MYCi975
fraction of naïve and stem-cell memory T (Tn/scm) cells / T-cell differentiation [1]: accelerated T-cell differentiation | lysis of Raji tumor cells [2]: clustered together | lysis of Raji tumor cells [3]: clustered together
